Results from ChEMBL document CHEMBL4665737, “An assay for DNA polymerase β lyase inhibitors that engage the catalytic nucleophile for binding” (Bioorg Med Chem, 2020).
Activity calls are given as the source filed them. The calls are words filed in the database; no cut-off is given here.

Tests used:
[1] = biological target: DNA polymerase beta (Rattus norvegicus) (UniProt P06766); test: Binding affinity to rat DNA polymerase beta with methyl-lysine modification at 72 assessed as inhibition of dRP excision in presence of 32P-end labelled duplex DNA at 50 uM by SDS PAGE
[2] = biological target: DNA polymerase beta (Homo sapiens) (UniProt P06746); test: Binding affinity to human DNA polymerase beta with homo-lysine modification at 72 assessed as inhibition of dRP excision in presence of 32P-end labelled duplex DNA at 25 uM by SDS PAGE
[3] = biological target: DNA polymerase beta (Homo sapiens) (UniProt P06746); test: Binding affinity to human DNA polymerase beta with methyl-lysine modification at 72 assessed as inhibition of dRP excision in presence of 32P-end labelled duplex DNA at 25 uM by SDS PAGE
[4] = biological target: DNA polymerase beta (Rattus norvegicus) (UniProt P06766); test: Binding affinity to wild type rat DNA polymerase beta assessed as inhibition of dRP excision in presence of 32P-end labelled duplex DNA at 50 uM by SDS PAGE analysis
[5] = biological target: DNA polymerase beta (Rattus norvegicus) (UniProt P06766); test: Binding affinity to rat DNA polymerase beta with homo-lysine modification at 72 assessed as inhibition of dRP excision in presence of 32P-end labelled duplex DNA at 50 uM by SDS PAGE
[6] = biological target: DNA polymerase beta (Homo sapiens) (UniProt P06746); test: Binding affinity to wild type human DNA polymerase beta assessed as inhibition of dRP excision in presence of 32P-end labelled duplex DNA at 25 uM by SDS PAGE analysis
[7] = biological target: DNA polymerase beta (Rattus norvegicus) (UniProt P06766); test: Binding affinity to rat DNA polymerase beta with methyl-lysine modification at 72 assessed as inhibition of dRP excision in presence of 32P-end labelled duplex DNA at 10 uM by SDS PAGE
[8] = biological target: DNA polymerase beta (Rattus norvegicus) (UniProt P06766); test: Binding affinity to rat DNA polymerase beta with homo-lysine modification at 72 assessed as inhibition of dRP excision in presence of 32P-end labelled duplex DNA at 10 uM by SDS PAGE
[9] = biological target: DNA polymerase beta (Rattus norvegicus) (UniProt P06766); test: Binding affinity to wild type rat DNA polymerase beta assessed as inhibition of dRP excision in presence of 32P-end labelled duplex DNA at 10 uM by SDS PAGE analysis
[10] = biological target: DNA polymerase beta (Rattus norvegicus) (UniProt P06766); test: Binding affinity to wild type rat DNA polymerase beta assessed as inhibition of dRP excision in presence of 32P-end labelled duplex DNA at 25 uM by SDS PAGE analysis
[11] = biological target: DNA polymerase beta (Rattus norvegicus) (UniProt P06766); test: Binding affinity to rat DNA polymerase beta with methyl-lysine modification at 72 assessed as inhibition of dRP excision in presence of 32P-end labelled duplex DNA at 25 uM by SDS PAGE
[12] = biological target: DNA polymerase beta (Rattus norvegicus) (UniProt P06766); test: Binding affinity to rat DNA polymerase beta with homo-lysine modification at 72 assessed as inhibition of dRP excision in presence of 32P-end labelled duplex DNA at 25 uM by SDS PAGE

Row | SMILES | inhibition [1] | inhibition [2] | inhibition [3] | inhibition [4] | inhibition [5] | inhibition [6] | inhibition [7] | inhibition [8] | inhibition [9] | inhibition [10] | inhibition [11] | inhibition [12]
1 | CC[C@H](CC[C@@H](C)[C@H]1CC[C@H]2[C@@H]3CCC4C[C@@H](OC(=O)c5ccccc5)CC[C@]4(C)[C@H]3CC[C@]12C)C(C)C (some centres not stated) | Active | Active | Active | Active | Active | Active | – | – | – | – | – | –
2 | CCCCCCCCC(O)C(O)CCCCCCCC(=O)O (racemic) | – | – | – | – | – | – | Active | Active | Active | – | – | –
3 | O=C(O)c1ccc(O)c(O)c1 | 50% | Active | Active | 50% | 25% | Active | – | – | – | – | – | –
4 | CC[C@H](/C=C/[C@@H](C)[C@H]1CC[C@H]2[C@@H]3CC=C4C[C@@H](O)CC[C@]4(C)[C@H]3CC[C@]12C)C(C)C | Active | Active | Active | Active | Active | Active | – | – | – | – | – | –
5 | CCCCCCCC[C@H]1O[C@H]1CCCCCCCC(=O)O (racemic) | Active | – | – | Active | inactive | – | – | – | – | Active | Active | inactive
